Test results published in patent US20260199444A1, “VACCINES AGAINST PROTEIN TYROSINE PHOSPHATASE RECEPTOR TYPE Z1 (PTPRZ1) -POSITIVE TUMORS” (ALTEVAX, priority 2022, published 2026).

How the values were obtained:
[1] = tested on: HLA-A2/DR1 mice; experiment: Melanin-based vaccine (plus CpG-28) subcutaneous immunization, CD8 T-cell response by IFNg-SFC count of re-stimulated splenocytes; format: in vivo; conditions: for T-cell Immune response: mean +/− SEM (number of mice): peptide 10 μg/mouse with synthetic melanin (peptide/L-Dopa 1/4) and CpG-28 10 μg/mouse, subcutaneous, day 8, splenocytes re-stimulated with the corresponding MHC class I epitope; for immune response after immunization (in words): melanin-based vaccine, HLA-A2/DR1 mice
Description: For the purpose of selecting a relevant PTPRZ1 antigen to be used in human patients, several peptides containing various PTPRZ1 immune epitopes were screened. The immunogenicity of these various peptides were screened by vaccinations in HLA-A2/DR1 mice (also known as Surel1 model). HLA-A2/DR1 mice are transgenic mice mimicking the human's immune system. As a vaccine procedure for screening, a melanin-based vaccine was used, as described in WO2021165306.
Using a melanin-based vaccine in HLA-A2/DR1 mice, these epitopes were then screened using peptides (SEQ ID NO: 5 to SEQ ID NO: 8) containing the epitope and an additional cysteine at the NH2-terminal, as it was disclosed in WO2021165306 that this modification increases the efficacy of melanin-based vaccine.
For immunizations, L-Dopa (0.8 mg/ml) underwent an oxidative polymerization at pH 8.5 in aerobic conditions for 2 hours at 60° C. The reaction mixture was then filtered on a 10 kDa filter, and the retentate containing the synthetic melanin was resuspended in phosphate buffer. Peptides (10 μg/mouse) containing the epitopes (underlined) were then added (at the weight ratio peptide/L-Dopa=1/4) and the mixtures were used for subcutaneous immunizations in mice. Phosphorothioate oligonucleotide CpG-28 (5′-[…], SEQ ID NO: 16) was added to vaccine formulations (10 μg/mouse) just before the immunizations. Mice were sacrificed on day 8 and the CD8 T-cell response was performed as described in Carpentier; 2017. Briefly, splenocytes were re-stimulated in vitro with the corresponding MHC class I-epitope (non-conjugated to melanin) and the numbers of IFNg-SFCs (Spot forming cells) were measured and expressed as Mean+/−S.E.M.

[2] = tested on: HLA-A2/DR1 mice; experiment: Peptide plus CpG-28 without melanin, subcutaneous immunization, CD8 T-cell response by IFNg-SFC count of re-stimulated splenocytes; format: in vivo; conditions: for T-cell Immune response: mean +/− SEM (number of mice): peptide 10 μg/mouse with CpG-28 10 μg/mouse, no melanin, subcutaneous, day 8, splenocytes re-stimulated with the corresponding MHC class I epitope
Experimental: In a different adjuvant formulation, SEQ ID NO: 4 and SEQ ID NO: 14 were studied in HLA-A2/DR1 mice.
The peptides (10 μg/mouse) were mixed with the TLR9 agonist CpG-28 (SEQ ID NO: 16) (10 μg/mouse) and the mixtures were used for subcutaneous immunizations in mice. Mice were sacrificed on day 8 and the CD8 T-cell response was performed as described in Carpentier; 2017. Briefly, splenocytes were re-stimulated in vitro with the corresponding MHC class I-epitope (non-conjugated to melanin) and the numbers of IFNg-SFCs (Spot forming cells) were measured and expressed as Mean+/−S.E.M.

[3] = tested on: transgenic SURE mice; experiment: Cross reactivity of T-cell responses after immunization with SEQ 14, splenocytes re-stimulated with SEQ 14 or native epitope SEQ 4; format: in vivo; conditions: immunized with SEQ ID NO: 14, day 8, re-stimulation 18 hours, 5 μg/ml to 0.3 ng/ml, FIG. 1
Experimental: FIG. 1: cross reactivity of T-cell responses obtained after immunizations with SEQ 14 in transgenic SURE mice. Mice were immunized against SEQ 14, as described in table 1, and sacrificed on day 8. The splenocytes (5.10^5 cells/well) were re-stimulated in vitro for 18 hours with either SEQ 14 or the native epitope SEQ 4 (both non-conjugated to melanin), at various concentrations (5 μg/ml to 0.3 ng/ml) and the numbers of IFNg-SFCs (Spot forming cells) were measured after a 18-hour incubation (representative experiments from 3 experiments)
Mice were thus immunized with SEQ ID NO: 14, and it was checked whether T-cell response triggered by SEQ ID NO: 14 was able to similarly recognize the mutated epitote SEQ ID NO: 15 and the native epitope SEQ ID NO: 4.

[4] = tested on: patients; conditions: glioblastoma patients, Hilf et al (2019); cited from earlier work

In the case of C AIIDGVESV (CAIIDGVESV) [SEQ ID NO: 7], the “T-cell Immune response: mean +/− SEM (number of mice)” value (“T-cell Immune response: mean +/− SEM” below) [1] is reported as 3 +/− 1 (n = 4) IFNg-SFCs.

With C MIWEHNVEV (CMIWEHNVEV) [SEQ ID NO: 8] the “immune response after immunization (in words)” value [1] was “able to trigger an immune response”, the “immune response after immunization (in words)” value ([1]; listed as SEQ 8) was “weak” and the “T-cell Immune response: mean +/− SEM” value [1] was 24 +/− 8 (n = 8) IFNg-SFCs.

For CKVFAGIPTV [SEQ ID NO: 5], the “immune response after immunization (in words)” value [1] was “powerful immune response” and the “T-cell Immune response: mean +/− SEM” value [1] was 288 +/− 37 (n = 8) IFNg-SFCs.

In the case of CVLDSHIHAYVNALLIPGPAGK [SEQ ID NO: 6], the “T-cell Immune response: mean +/− SEM” value [1] is reported as 7 +/− 5 (n = 4) IFNg-SFCs.

With “H MIWEHNVEV (HMIWEHNVEV) [SEQ ID NO: 11]” the “T-cell Immune response: mean +/− SEM” value [1] was 60 +/− 25 (n = 7) IFNg-SFCs.

In the case of KIWEHNVEV [SEQ ID NO: 15], the “T-cell Immune response: mean +/− SEM” value [1] is reported as 118 +/− 26 (n = 7) IFNg-SFCs.

For “KK KIWEHNVEV (KKKIWEHNVEV) [SEQ ID NO: 14]”, the “T-cell Immune response: mean +/− SEM” value [2] was 25 +/− 13 (n = 7) IFNg-SFCs, the “CD8 immune response after immunization without melanin (in words)” value ([2]; peptide with CpG-28, no melanin, compared with SEQ ID NO: 4) was “more potent” and the “immune response after immunization (in words)” value [1] was “strong CD8 immune response”. For the same substance, the “T-cell Immune response: mean +/− SEM” value [1] was 287 +/− 26 (n = 8) IFNg-SFCs and the “reactivity against the native epitope (SEQ ID NO: 4) of lymphocytes primed with the modified epitope, compared with reactivity against the modified epitope” value [3] was “even higher”.

In the case of “KP MIWEHNVEV (KPMIWEHNVEV) [SEQ ID NO: 13]”, the “T-cell Immune response: mean +/− SEM” value [1] is reported as 80 +/− 34 (n = 7) IFNg-SFCs.

For “MIWEHNVEV [SEQ ID NO: 4, reference compound]”, the “T-cell Immune response: mean +/− SEM” value [2] is listed as 11 +/− 4 (n = 7) IFNg-SFCs, the “reactive CD8+ T cells against the peptide after immunization of patients” value [4] is listed as “found in some patients” and the “T-cell Immune response: mean +/− SEM” value [1] is listed as 3 +/− 1 (n = 7) IFNg-SFCs.

For “P MIWEHNVEV (PMIWEHNVEV) [SEQ ID NO: 10]”, the “T-cell Immune response: mean +/− SEM” value [1] was 40 +/− 15 (n = 7) IFNg-SFCs.

For “PK MIWEHNVEV (PKMIWEHNVEV) [SEQ ID NO: 12]”, the “T-cell Immune response: mean +/− SEM” value [1] was 61 +/− 30 (n = 7) IFNg-SFCs.
